From ChEMBL document CHEMBL1150386 (J Med Chem, 2008)

Experiments:
Acetylcholinesterase [1] = target: T1, Acetylcholinesterase (Rattus norvegicus, UniProt P37136)
T1 sequence (P37136 whole entry): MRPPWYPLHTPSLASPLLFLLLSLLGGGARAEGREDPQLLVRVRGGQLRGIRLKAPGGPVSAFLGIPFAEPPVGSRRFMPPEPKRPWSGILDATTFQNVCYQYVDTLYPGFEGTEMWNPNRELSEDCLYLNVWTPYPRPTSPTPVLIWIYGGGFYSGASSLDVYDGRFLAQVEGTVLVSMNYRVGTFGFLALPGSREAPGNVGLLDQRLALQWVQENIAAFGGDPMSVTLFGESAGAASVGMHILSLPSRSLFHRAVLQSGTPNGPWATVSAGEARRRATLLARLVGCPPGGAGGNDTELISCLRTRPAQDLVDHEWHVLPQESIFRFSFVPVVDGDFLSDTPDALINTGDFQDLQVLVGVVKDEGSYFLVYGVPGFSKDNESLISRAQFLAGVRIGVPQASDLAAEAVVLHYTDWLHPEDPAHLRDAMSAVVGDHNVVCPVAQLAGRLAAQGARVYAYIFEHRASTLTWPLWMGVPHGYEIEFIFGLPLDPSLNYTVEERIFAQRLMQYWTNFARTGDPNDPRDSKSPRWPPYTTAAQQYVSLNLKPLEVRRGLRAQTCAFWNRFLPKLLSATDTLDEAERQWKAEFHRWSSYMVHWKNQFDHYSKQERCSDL

Acetylcholinesterase [2] = target: T2, Acetylcholinesterase (Torpedo californica, UniProt P04058)
Acetylcholinesterase [3] = target: T3, Acetylcholinesterase (Mus musculus, UniProt P21836)
T3 sequence (P21836 whole entry): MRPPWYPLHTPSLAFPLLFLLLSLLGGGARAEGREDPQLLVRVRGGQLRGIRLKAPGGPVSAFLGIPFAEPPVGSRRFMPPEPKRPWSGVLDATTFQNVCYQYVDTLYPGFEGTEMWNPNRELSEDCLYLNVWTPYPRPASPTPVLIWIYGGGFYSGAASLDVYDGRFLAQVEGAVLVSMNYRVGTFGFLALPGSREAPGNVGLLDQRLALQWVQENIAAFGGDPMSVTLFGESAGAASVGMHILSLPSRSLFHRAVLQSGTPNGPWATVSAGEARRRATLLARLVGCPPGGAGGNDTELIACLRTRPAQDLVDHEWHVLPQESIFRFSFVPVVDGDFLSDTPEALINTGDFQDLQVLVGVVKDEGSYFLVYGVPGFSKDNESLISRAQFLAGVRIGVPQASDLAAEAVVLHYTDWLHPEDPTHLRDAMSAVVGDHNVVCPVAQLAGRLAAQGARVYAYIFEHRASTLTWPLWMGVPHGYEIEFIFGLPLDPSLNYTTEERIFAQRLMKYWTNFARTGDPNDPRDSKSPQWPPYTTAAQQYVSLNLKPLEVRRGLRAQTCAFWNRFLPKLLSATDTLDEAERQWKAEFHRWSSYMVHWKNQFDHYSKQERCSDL
Description: Binding affinity to mouse AChE

Acetylcholinesterase [4] = target: T3, Acetylcholinesterase; remark: listed apart in the source
Description: Binding affinity to mouse AChE by equilibrium binding assay

Acetylcholinesterase [5] = target: Acetylcholinesterase (Homo sapiens, UniProt P22303); experiment: Binding affinity to human AChE
Cholinesterase [6] = target: Cholinesterase (Mus musculus, UniProt Q03311)
Description: Inhibition of mouse BuChE

Cholinesterase [7] = target: Cholinesterase (Equus caballus, UniProt P81908); experiment: Inhibition of horse BuChE
Butyrylcholinesterase = Butyrylcholinesterase (Rattus norvegicus, UniProt Q9JKC1)
[8] = Ratio of Ki for fetal bovine serum AChE to Ki for horse BuChE
Acetylcholinesterase [9] = target: T2, Acetylcholinesterase; experiment: Inhibition of Torpedo californica AChE assessed as carbamylation; set-up: species or system Tetronarce californica
Acetylcholinesterase [10] = target: T4, Acetylcholinesterase (Bos taurus, UniProt P23795); experiment: Inhibition of bovine AChE
T4 sequence (P23795 whole entry): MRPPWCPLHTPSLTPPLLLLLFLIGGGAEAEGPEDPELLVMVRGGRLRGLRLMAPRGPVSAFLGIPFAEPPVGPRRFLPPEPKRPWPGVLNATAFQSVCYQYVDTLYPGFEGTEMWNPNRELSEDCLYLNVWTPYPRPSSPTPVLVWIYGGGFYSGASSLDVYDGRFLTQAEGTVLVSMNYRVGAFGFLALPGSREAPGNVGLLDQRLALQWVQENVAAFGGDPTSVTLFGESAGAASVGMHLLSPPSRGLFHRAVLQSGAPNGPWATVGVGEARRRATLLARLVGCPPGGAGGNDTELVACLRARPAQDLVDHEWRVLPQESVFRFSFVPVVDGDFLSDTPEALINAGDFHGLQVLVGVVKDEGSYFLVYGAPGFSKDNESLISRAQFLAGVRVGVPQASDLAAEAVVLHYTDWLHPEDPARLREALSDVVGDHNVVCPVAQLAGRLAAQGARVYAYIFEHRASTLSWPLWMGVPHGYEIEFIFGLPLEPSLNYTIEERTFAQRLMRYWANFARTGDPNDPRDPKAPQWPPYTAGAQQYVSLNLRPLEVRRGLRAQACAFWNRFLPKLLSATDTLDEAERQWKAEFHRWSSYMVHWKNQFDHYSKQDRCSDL

T2 sequence (P04058 whole entry): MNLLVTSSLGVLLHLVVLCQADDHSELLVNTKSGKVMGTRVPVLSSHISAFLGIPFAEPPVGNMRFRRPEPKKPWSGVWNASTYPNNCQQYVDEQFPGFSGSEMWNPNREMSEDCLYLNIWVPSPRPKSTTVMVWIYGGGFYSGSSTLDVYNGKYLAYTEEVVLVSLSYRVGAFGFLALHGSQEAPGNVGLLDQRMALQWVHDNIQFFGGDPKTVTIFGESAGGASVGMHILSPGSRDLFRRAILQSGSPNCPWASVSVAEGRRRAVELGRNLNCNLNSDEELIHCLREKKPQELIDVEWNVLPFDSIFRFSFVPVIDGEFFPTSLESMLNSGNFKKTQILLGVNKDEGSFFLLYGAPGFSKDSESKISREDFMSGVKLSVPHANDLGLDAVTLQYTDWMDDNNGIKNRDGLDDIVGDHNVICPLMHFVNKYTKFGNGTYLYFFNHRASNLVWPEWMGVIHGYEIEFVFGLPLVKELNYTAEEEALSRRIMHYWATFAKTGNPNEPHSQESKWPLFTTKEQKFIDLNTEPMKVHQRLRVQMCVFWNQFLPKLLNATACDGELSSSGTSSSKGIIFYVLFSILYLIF
Chain of Cholinesterase (Equus caballus, UniProt P81908) (P81908 whole entry): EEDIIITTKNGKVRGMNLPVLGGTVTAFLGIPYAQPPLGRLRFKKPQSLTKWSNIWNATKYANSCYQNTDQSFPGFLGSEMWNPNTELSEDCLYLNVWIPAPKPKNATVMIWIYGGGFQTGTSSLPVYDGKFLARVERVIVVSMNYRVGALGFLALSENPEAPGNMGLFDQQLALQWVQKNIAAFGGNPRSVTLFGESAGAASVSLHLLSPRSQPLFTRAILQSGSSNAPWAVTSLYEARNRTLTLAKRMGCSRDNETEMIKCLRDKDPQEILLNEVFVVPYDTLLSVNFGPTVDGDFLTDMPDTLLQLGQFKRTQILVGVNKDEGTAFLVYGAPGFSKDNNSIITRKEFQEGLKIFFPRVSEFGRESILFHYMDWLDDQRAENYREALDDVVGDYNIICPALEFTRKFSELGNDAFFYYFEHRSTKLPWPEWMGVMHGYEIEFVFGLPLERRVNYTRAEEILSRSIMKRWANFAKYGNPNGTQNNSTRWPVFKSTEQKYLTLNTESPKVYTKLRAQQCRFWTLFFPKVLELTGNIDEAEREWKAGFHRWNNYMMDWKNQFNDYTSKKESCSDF
Chain of Cholinesterase (Mus musculus, UniProt Q03311) (Q03311 whole entry): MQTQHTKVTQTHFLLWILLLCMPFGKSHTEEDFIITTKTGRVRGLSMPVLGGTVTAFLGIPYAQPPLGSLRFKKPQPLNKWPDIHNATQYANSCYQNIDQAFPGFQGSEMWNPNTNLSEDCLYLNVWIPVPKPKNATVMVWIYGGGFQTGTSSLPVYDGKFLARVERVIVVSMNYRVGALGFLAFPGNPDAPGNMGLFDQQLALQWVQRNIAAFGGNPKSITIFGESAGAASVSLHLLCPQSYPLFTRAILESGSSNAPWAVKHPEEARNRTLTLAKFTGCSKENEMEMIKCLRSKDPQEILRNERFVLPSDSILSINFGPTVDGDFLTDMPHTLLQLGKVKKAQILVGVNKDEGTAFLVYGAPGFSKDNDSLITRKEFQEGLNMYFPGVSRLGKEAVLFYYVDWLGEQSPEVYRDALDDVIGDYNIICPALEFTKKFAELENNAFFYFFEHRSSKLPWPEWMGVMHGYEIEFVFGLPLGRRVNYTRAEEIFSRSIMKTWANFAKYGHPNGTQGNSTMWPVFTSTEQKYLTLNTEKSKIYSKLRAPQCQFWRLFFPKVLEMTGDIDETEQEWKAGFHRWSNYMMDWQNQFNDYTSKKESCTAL
Chain of Butyrylcholinesterase (Q9JKC1 whole entry): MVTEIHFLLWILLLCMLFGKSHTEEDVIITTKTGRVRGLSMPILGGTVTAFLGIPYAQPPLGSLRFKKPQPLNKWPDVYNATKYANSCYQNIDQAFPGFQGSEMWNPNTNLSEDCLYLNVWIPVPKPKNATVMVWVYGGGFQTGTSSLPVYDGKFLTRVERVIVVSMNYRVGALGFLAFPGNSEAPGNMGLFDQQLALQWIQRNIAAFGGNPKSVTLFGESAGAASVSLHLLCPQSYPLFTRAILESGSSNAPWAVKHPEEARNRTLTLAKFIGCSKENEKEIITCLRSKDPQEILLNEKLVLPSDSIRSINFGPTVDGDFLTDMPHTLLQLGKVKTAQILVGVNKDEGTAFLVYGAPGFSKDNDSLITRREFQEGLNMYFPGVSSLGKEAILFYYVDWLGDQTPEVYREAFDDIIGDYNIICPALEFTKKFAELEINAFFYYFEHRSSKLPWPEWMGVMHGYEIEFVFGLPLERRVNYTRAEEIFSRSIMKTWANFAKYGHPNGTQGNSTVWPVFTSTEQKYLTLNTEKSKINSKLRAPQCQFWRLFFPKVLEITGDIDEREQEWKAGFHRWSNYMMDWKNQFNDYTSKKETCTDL
Chain of Acetylcholinesterase (Homo sapiens, UniProt P22303) (P22303 whole entry): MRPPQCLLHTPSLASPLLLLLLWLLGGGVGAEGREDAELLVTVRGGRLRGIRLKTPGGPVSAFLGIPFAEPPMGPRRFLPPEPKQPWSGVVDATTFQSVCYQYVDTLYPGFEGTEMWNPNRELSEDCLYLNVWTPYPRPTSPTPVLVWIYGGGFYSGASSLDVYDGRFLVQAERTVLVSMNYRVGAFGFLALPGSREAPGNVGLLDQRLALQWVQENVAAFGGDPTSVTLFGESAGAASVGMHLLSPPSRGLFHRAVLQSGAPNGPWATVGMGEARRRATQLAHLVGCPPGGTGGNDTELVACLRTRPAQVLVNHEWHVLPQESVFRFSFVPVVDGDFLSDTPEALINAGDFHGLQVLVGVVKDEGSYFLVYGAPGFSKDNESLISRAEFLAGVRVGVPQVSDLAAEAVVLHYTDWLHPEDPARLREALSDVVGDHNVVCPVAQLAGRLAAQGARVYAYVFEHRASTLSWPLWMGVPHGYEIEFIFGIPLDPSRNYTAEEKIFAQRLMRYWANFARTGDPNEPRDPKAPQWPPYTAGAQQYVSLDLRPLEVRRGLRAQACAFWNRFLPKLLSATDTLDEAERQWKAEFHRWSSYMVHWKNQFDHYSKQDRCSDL

Compound `NCCCCCCCCNc1c2c(nc3ccccc13)CCCC2` has an IC50 (Acetylcholinesterase [1]) of 0.0015 µM.
`CCc1ccccc1NC(=O)Oc1ccc2c(c1)[C@]1(C)CCN(C)O[C@@H]1N2C` [GANSTIGMINE] gave an IC50 (Acetylcholinesterase [2]) of 5.12 µM.
Work on `C[N+](C)(C)CCCCCCCCCC[n+]1c(-c2ccccc2)cc(N)c2ccc3ccc(N)cc3c21` yielded a Kd (Acetylcholinesterase [3]) of 79 µM and a Kd (Acetylcholinesterase [4]) of 160 µM.
In the case of `CCC1=CC2Cc3nc4cc(Cl)ccc4c(N)c3[C@@H](C1)C2` [HUPRINE X], the Ki (Acetylcholinesterase [5]) is reported as 0.00067 µM.
For `CC[N+](CC)(CCNC(=O)C(=O)NCC[N+](CC)(CC)Cc1ccccc1Cl)Cc1ccccc1Cl` [AMBENONIUM], the Kd (Acetylcholinesterase [3]) was 54 µM and the Kd (Acetylcholinesterase [4]) was 46 µM.
`Nc1ccc2c(c1)c(-c1ccccc1)[n+](CCCCCCc1cn(CCNc3c4c(nc5ccccc35)CCCC4)nn1)c1cc(N)ccc21` gave a Ki (Cholinesterase [6]) of 0.00046 µM.
`c1ccc2c(NCCCCCCCNc3c4c(nc5ccccc35)CCCC4)c3c(nc2c1)CCCC3` gave a Ki (Cholinesterase [7]) of 0.002 µM.
Work on `c1ccc2c(c1)NC1CCCCC1=C2NCCCCCCCCNC1CCNC2CCCCC21` (stereo unspecified) yielded an IC50 (Acetylcholinesterase [1]) of 0.0088 µM and an IC50 (Butyrylcholinesterase) of 0.11 µM.
Work on `CN(CCCNc1c2c(nc3ccccc13)CCCC2)CCCSc1c2c(nc3ccccc13)CCCC2` yielded a Ki (Cholinesterase [7]) of 0.0042 µM and a Ratio Ki [8] of 2.17.
Compound `Nc1ccc2c(c1)c(-c1ccccc1)[n+](CCCCCCc1cnnn1CCNc1c3c(nc4ccccc14)CCCC3)c1cc(N)ccc21` has a Ki (Cholinesterase [6]) of 0.00072 µM.
Work on `CCN(C)C(=O)Oc1cccc([C@H](C)N(C)C)c1` [RIVASTIGMINE] yielded a Ki (Acetylcholinesterase [9]) of 0.033 M⁻¹ s⁻¹.
Work on `C=CC[N+](C)(C)c1ccc(CCC(=O)CCc2ccc([N+](C)(C)CC=C)cc2)cc1` yielded a Ki (Acetylcholinesterase [10]) of 0.0571 µM.
